Test: Lethal dose in mice
Format: toxicity
Conditions: mouse, in vivo

Q: Which LD50 does the source give for CISPLATIN here?
A: 10 mg/kg

Reference: ChEMBL document CHEMBL1133859, “Unprecedented sugar-dependent in vivo antitumor activity of carbohydrate-pendant cis-diamminedichloroplatinum(II) complexes” (Bioorg Med Chem Lett, 2001)
